Some test systems named below: SR leukemia; OVCAR-5 ovarian; EKVX NSCLC; SNB-75 CNS; OVCAR-8 ovarian; A549 NSCLC; SF-539 CNS; K-562 leukemia; HCT-15 colon; OVCAR-3 ovarian.
Common to all, as to assay: DTP human tumour cell line panel, 48 h

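In this assay, cells in 96-well plates receive the compound at five concentrations for 48 hours. Endpoints are linearly interpolated between the surrounding concentrations. GI50: concentration for 50% inhibition of growth. TGI: concentration producing complete growth inhibition.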

As usually defined, the GI50 is the concentration giving 50% growth inhibition. By TGI is commonly meant the concentration at which net growth stops. The low end stands for greater sensitivity of the cells, the high end for lower sensitivity of the cells.

For the compound `C=CCc1c2c(c(OC)c3ccoc13)C(=O)/C(=C/c1ccccc1OC)O2`, the GI50 in the test with SR leukemia is 3.16 µM; with OVCAR-5 ovarian, 3.57 µM; in the test on EKVX NSCLC, 4.41 µM; in the test on SNB-75 CNS it was 1.44 µM; in the test with OVCAR-8 ovarian it was 3.87 µM; in the test with A549 NSCLC, 4.12 µM. Moreover, the GI50 with SF-539 CNS is 5.45 µM; in the test on K-562 leukemia, 3.51 µM; in the test on HCT-15 colon, 3.6 µM; with OVCAR-3 ovarian, 3.28 µM. The TGI is > 100 µM in the test with SR leukemia; > 100 µM with OVCAR-5 ovarian; > 100 µM in the test with EKVX NSCLC; 4.91 µM in the test on SNB-75 CNS; > 100 µM in the test on OVCAR-8 ovarian; > 100 µM in the test on A549 NSCLC. The TGI was 72.8 µM in the test on SF-539 CNS, > 100 µM in the test on K-562 leukemia, > 100 µM in the test with HCT-15 colon and 12.2 µM in the test on OVCAR-3 ovarian.
Regarding `CCN1C(=O)N(CC)C2C1NN=c1s/c(=C\c3cccnc3)c(=O)n12` (centres undefined), the GI50 in the test with SR leukemia is 0.132 µM; with OVCAR-5 ovarian, 1.97 µM; with EKVX NSCLC it was 0.659 µM; with SNB-75 CNS, 0.116 µM; with OVCAR-8 ovarian, 0.823 µM; with A549 NSCLC, 0.733 µM. The GI50 was 0.319 µM with SF-539 CNS, 0.3 µM in the test with K-562 leukemia, 0.414 µM with HCT-15 colon and 0.359 µM with OVCAR-3 ovarian. For the same compound, the TGI is > 100 µM with SR leukemia; > 100 µM with OVCAR-5 ovarian; > 100 µM with EKVX NSCLC; > 100 µM in the test with OVCAR-8 ovarian; > 100 µM in the test with A549 NSCLC; 2.51 µM in the test on SF-539 CNS. Moreover, the figures for the TGI with K-562 leukemia, in the test on HCT-15 colon and in the test with OVCAR-3 ovarian were > 100 µM, > 100 µM and 8.53 µM, respectively.
Consider `COc1cc(/C=C2\C(=O)N(C(=O)Cc3ccccc3)N=C2C)ccc1O`, for which the TGI in the test with SR leukemia, with OVCAR-5 ovarian, in the test on EKVX NSCLC, in the test on SNB-75 CNS, in the test on OVCAR-8 ovarian and in the test with A549 NSCLC was > 100 µM in each case. Besides, the TGI with SF-539 CNS, in the test with K-562 leukemia, with HCT-15 colon and in the test with OVCAR-3 ovarian was > 100 µM in each case.
For the compound `COc1cc(Cl)cc(-c2nn(C(=O)NCCN3CCOCC3)cc2-c2ccncc2)c1`, the GI50 was 5.92 µM in the test on SR leukemia; 37.8 µM with OVCAR-5 ovarian; 5.57 µM in the test on EKVX NSCLC; 1.73 µM with SNB-75 CNS; 7.61 µM in the test on OVCAR-8 ovarian; 9.97 µM in the test with A549 NSCLC. The GI50 is 4.57 µM with SF-539 CNS, 4.12 µM in the test on K-562 leukemia, 3.79 µM with HCT-15 colon and 2.41 µM in the test with OVCAR-3 ovarian. Besides, the TGI in the test with SR leukemia was > 100 µM; in the test with OVCAR-5 ovarian, > 100 µM; in the test with EKVX NSCLC it was 79.9 µM; in the test with SNB-75 CNS, 8.78 µM; in the test with OVCAR-8 ovarian it was > 100 µM; in the test with A549 NSCLC, > 100 µM. For the same compound, the TGI with SF-539 CNS was 25.9 µM; with K-562 leukemia it was > 100 µM; in the test on HCT-15 colon it was > 100 µM; with OVCAR-3 ovarian it was 7.11 µM.
In the case of `CCOC(=O)C1=C(C)N(Cc2ccccc2)C(C)=C(C(=O)OCC)C1c1ccccc1O`, the TGI with SR leukemia was 54.9 µM; in the test with OVCAR-5 ovarian, > 100 µM; in the test with EKVX NSCLC it was 95.9 µM; in the test on SNB-75 CNS, > 100 µM; in the test with OVCAR-8 ovarian, > 100 µM; with A549 NSCLC, > 100 µM. For the same compound, the TGI in the test on SF-539 CNS is 88.8 µM; in the test with K-562 leukemia, > 100 µM; with HCT-15 colon, > 100 µM; in the test on OVCAR-3 ovarian, 90.8 µM.
Consider `Cc1ccc(C(=O)O/N=C2/CCC/C2=C\c2ccccc2)cc1`, for which the TGI in the test on SR leukemia, in the test with OVCAR-5 ovarian, with EKVX NSCLC, in the test on SNB-75 CNS, in the test with OVCAR-8 ovarian and with A549 NSCLC was > 100 µM throughout. For the same compound, the TGI with SF-539 CNS, in the test with K-562 leukemia, in the test on HCT-15 colon and in the test on OVCAR-3 ovarian was > 100 µM each time.

The values are drawn from PubChem BioAssay (NCI).
